Results: patent US8859018B2, “Delivery carrier for antimicrobial essential oils” (Nestec S.A., priority 2010, dated 2014)

Legend:
Aspergillus niger = assay: Challenge test in fresh and aged oyster sauce (Example 3); type: cell-based; details: oyster sauce aged 0 to 6 months; KS 0.10 wt %, garlic EO 0.12 wt %; one week to at least 4 weeks after start
Experimental: (§1) Fresh oyster sauce (OS) tested was the commercial MAGGI Oyster Sauce product from Singapore. The OS was first pasteurized according to standard procedures. After cooling, the samples were divided into 3 groups: A) a negative control group where just 5% of sterilized water was added; B) a positive control group where potassium sorbate (KS) was added to a final concentration of 0.10 wt %; and group C) where a garlic EO acacia gum emulsion (1:1 wt ratio) was added to a final concentration of the EO of 0.12 wt %. Potassium sorbate (E number 202) is widely used as a food preservative and serves here as a positive control. Garlic EO is from Synthite Industries. It was emulsified with acacia gum in the same way as the oregano EO in Example 1.
(§2) The three OS samples were stored (i.e. aged) at 30° C. and ca. 65% relative humidity.
(§3) Microbiological challenge tests were performed directly after preparation of the OS samples, labelled as 0 month, and then after 3 and 6 months of storage, respectively. The challenge tests were performed in the same way as described in Example 1. However, instead of using Saccharomyces cerevisiae as spoilage culture, individual cultures of Aspergillus niger, Penicillium nalgiovense and Eurotium amstelodami were used.

Eurotium amstelodami = assay: as above; type: cell-based; details: oyster sauce aged 0 to 6 months; KS 0.10 wt %, garlic EO 0.12 wt %; one week to at least 4 weeks after start
Experimental: as §1, §2, §3

Penicillium nalgiovense = assay: as above; type: cell-based; details: oyster sauce aged 0 to 6 months; KS 0.10 wt %, garlic EO 0.12 wt %; one week to at least 4 weeks after start
Experimental: as §1, §2, §3

[1] = Un-inoculated control samples of the challenge tests in MOS / MAS; details: 0.10%
Experimental: Challenge Test with moulds was according to the following steps: 1) Add 100 g of MOS into a 250 ml sterile Schott bottle with screw-cap cover; 2) Add 0.1 to 2 ml of mould (A. niger/P. nalgiovence/E. amstelodami) inoculum to meet the target inoculum of 10^2-10^3 cfu/g of MOS into the 100 g MOS and shake to mix well; 3) Pour 35 g of the inoculated MOS into a petri dish. Perform this in duplicate; 4) Pipette 1 g of inoculated MOS from the Schott bottle into 9 ml sterile Tryptone Salt 0.1% diluents and vortex. Perform this in duplicate; 5) Plate 0.1-0.5 ml of inoculated Tryptone Salt 0.1% onto DG18 plates at appropriate dilutions by Spread Plate Method. Incubate the agar plates at 25° C. for 5 days to enumerate the initial mould count; 6) Incubate the inoculated MOS in petri dishes at 30° C. for a week. Monitor for mould growth by visual observation after one week. Perform this mould growth monitoring for a period of 4 weeks; 7) The control was prepared by repeating steps 3 to 6 without using any inoculum. The control was plated onto PCA with Cycloheximide plates.
Challenge Test with yeasts was according to the following steps: 1) Add 100 g of MOS into a 250 ml sterile Schott bottle with screw-cap cover; 2) Add 0.1 ml to 2 ml of yeast (Z. bailii) inoculum to meet the target inoculum of 10^2 to 10^3 cfu/g of MOS into the 100 g MOS and shake to mix well; 3) Pour 35 g of the inoculated MOS into two 150 ml sterile disposable polypropylene container with screw-cap cover; 4) Pipette 1 g of inoculated MOS into 9 ml sterile Tryptone Salt 0.1% diluent and vortex. Perform this in duplicate; 5) Plate 0.1 ml to 0.5 ml of inoculated Tryptone Salt 0.1% onto MEA at appropriate dilutions by Spread Plate Method. Incubate the plates at 30° C. for 3 days for the enumeration of the initial yeast count; 6) Incubate the inoculated MOS in 150 ml containers at 30° C. for a week; 7) After one week, repeat steps 4 to 6 for the weekly monitoring of Z. bailii growth behavior in MOS. Perform the monitoring for a period of 4 weeks; 8) The control was prepared by repeating steps 3 to 7 without using any inoculum.
The method for producing MAS was the same as for the MOS production in experiment 4. The preparation of the microorganism cultures as well as the challenge tests were identical to the ones described in experiment 4 as well.

[2] = MAGGI Abalone Sauce, age 0 month
[3] = MAGGI Abalone Sauce, age 1 month
[4] = MAGGI Abalone Sauce, age 3 month
[5] = MAGGI Abalone Sauce, age 6 month
[6] = MAGGI Abalone Sauce, age 10 month
[7] = MAGGI Abalone Sauce, age 12 month
[8] = MAGGI Oyster Sauce, age 0 month

C/C=C/C=C/C(=O)[O-].[K+] [KS, potassium sorbate]
no detectable growth: growth of the mould strain (Aspergillus niger) | growth of the mould strain (Eurotium amstelodami) | growth of the mould strain (Penicillium nalgiovense)
<1.00 Log cfu/g: Week 0 (Log cfu/g) [1, 2] | Week 1 (Log cfu/g) [1, 2] | Week 2 (Log cfu/g) [1, 2] | Week 3 (Log cfu/g) [1, 2] | Week 4 (Log cfu/g) [1, 2] | Week 0 (Log cfu/g) [1, 3] | Week 1 (Log cfu/g) [1, 3] | Week 2 (Log cfu/g) [1, 3] | Week 3 (Log cfu/g) [1, 3] | Week 4 (Log cfu/g) [1, 3] | Week 0 (Log cfu/g) [1, 4] | Week 1 (Log cfu/g) [1, 4] | Week 2 (Log cfu/g) [1, 4] | Week 3 (Log cfu/g) [1, 4] | Week 4 (Log cfu/g) [1, 4] | Week 0 (Log cfu/g) [1, 5] | Week 1 (Log cfu/g) [1, 5] | Week 2 (Log cfu/g) [1, 5] | Week 3 (Log cfu/g) [1, 5] | Week 4 (Log cfu/g) [1, 5] | Week 0 (Log cfu/g) [1, 6] | Week 1 (Log cfu/g) [1, 6] | Week 2 (Log cfu/g) [1, 6] | Week 3 (Log cfu/g) [1, 6] | Week 4 (Log cfu/g) [1, 6] | Week 0 (Log cfu/g) [1, 7]
<1.30 Log cfu/g: Week 1 (Log cfu/g) [1, 7] | Week 2 (Log cfu/g) [1, 7] | Week 3 (Log cfu/g) [1, 7] | Week 4 (Log cfu/g) [1, 7] | Week 0 (Log cfu/g) [1, 8] | Week 1 (Log cfu/g) [1, 8] | Week 2 (Log cfu/g) [1, 8] | Week 3 (Log cfu/g) [1, 8] | Week 4 (Log cfu/g) [1, 8]
